The text below walks through data of patent US20230348583A1, “TGFbeta1-BINDING IMMUNOGLOBULINS AND USE THEREOF” (SCHOLAR ROCK, INC., priority 2016, published 2023).

Series [1] concerns rats. As to conditions: Frazier et al. 2007; cited from earlier work.
The subject of series [2] is female F344/NHsd rats. The series is described as follows: Rat toxicity study. As to conditions: for Aortic root: Hemorrhage, Minimal / Aortic root: Infiltrate, mixed cell, Minimal / Atrium: Hemorrhage, Minimal / Atrium: Hyperplasia, endothelium, Minimal / Atrium: Infiltrate, mixed cell, Minimal / Atrium: Infiltrate, mixed cell, Slight / Coronary artery: Necrosis with inflammation, Slight / Heart valves: Valvulopathy, Minimal / Heart valves: Valvulopathy, Moderate / Heart valves: Valvulopathy, Slight / Myocardium: Degeneration/necrosis, Minimal / Myocardium: Degeneration/necrosis, Slight / Myocardium: Hemorrhage, Slight / Myocardium: Infiltrate, mixed cell, Slight: animals affected (n=5).
Description: Animal body weight was determined at days 1, 3, and 7 of the dosing phase. Animals were sacrificed at day 8 and necropsies performed.

Series [3] has as its system rats and dogs. As to conditions: Stauber et al. 2014; cited from earlier work.
For series [4], the system named is cynomolgus macaques. As to conditions: cynomolgus monkey, in vivo; cited from earlier work.
Series [5] has as its system human cancer patients. As to conditions: in vivo; cited from earlier work.

Turning to `O=C(NC1CCOCC1)c1ccc(-c2cc(-c3c[nH]nc3-c3ccccn3)ccn2)cc1` [GW788388], the “Bone toxicity in rats” value in series [1] is given as “induced physeal dysplasia”.

Regarding `c1ccc(-c2nn3c(c2-c2ccnc4cc(OCCN5CCOCC5)ccc24)CCC3)nc1` [LY2109761], the “Body weight during the dosing phase” value in series [2] (200 mg/kg or 300 mg/kg) is on record as “decreased body weight”. In addition, the Animals found dead entry in series [2] (200 mg/kg oral gavage once daily, n=5, day 7) is “Two”. The Mortality result in series [2] (300 mg/kg oral gavage once daily, all animals (n=5), days 3, 6, or 7) is listed as “sacrificed in a moribund condition or found dead”. Moreover, in series [2] (LY2109761 200 mg/kg/day), the “Heart, Absolute Weight” value is 112 percentage control mean value; the “Heart, Body Weight Ratio” value is given as 132 percentage control mean value; the “Heart, Brain Weight Ratio” value is 113 percentage control mean value; the “Aortic root: Hemorrhage, Minimal” value is on record as 1. Moreover, in series [2] (LY2109761 200 mg/kg/day), the “Aortic root: Infiltrate, mixed cell, Minimal” value is given as 1; the “Atrium: Hemorrhage, Minimal” value turned out to be 1; the “Atrium: Hyperplasia, endothelium, Minimal” value is 1; the “Atrium: Infiltrate, mixed cell, Minimal” value worked out at 2. In series [2] (LY2109761 200 mg/kg/day), the “Atrium: Infiltrate, mixed cell, Slight” value stood at 0; the “Coronary artery: Necrosis with inflammation, Slight” value is on record as 0; the “Heart valves: Valvulopathy, Minimal” value amounted to 1; the “Heart valves: Valvulopathy, Moderate” value was found to be 1. Besides, in series [2] (LY2109761 200 mg/kg/day), the “Heart valves: Valvulopathy, Slight” value is on record as 3; the “Myocardium: Degeneration/necrosis, Minimal” value worked out at 0; the “Myocardium: Degeneration/necrosis, Slight” value came to 1; the “Myocardium: Hemorrhage, Slight” value is on record as 1. Also, the “Myocardium: Infiltrate, mixed cell, Slight” value in series [2] (LY2109761 200 mg/kg/day) is listed as 0. Moreover, in series [2] (LY2109761 300 mg/kg/day), the “Aortic root: Hemorrhage, Minimal” value is listed as 0; the “Aortic root: Infiltrate, mixed cell, Minimal” value came to 0; the “Atrium: Hemorrhage, Minimal” value was found to be 2; the “Atrium: Hyperplasia, endothelium, Minimal” value came to 3. In series [2] (LY2109761 300 mg/kg/day), the “Atrium: Infiltrate, mixed cell, Minimal” value was 3; the “Atrium: Infiltrate, mixed cell, Slight” value came to 1; the “Coronary artery: Necrosis with inflammation, Slight” value was 1; the “Heart valves: Valvulopathy, Minimal” value is 2. In series [2] (LY2109761 300 mg/kg/day), the “Heart valves: Valvulopathy, Moderate” value is 0; the “Heart valves: Valvulopathy, Slight” value was found to be 3; the “Myocardium: Degeneration/necrosis, Minimal” value came to 1; the “Myocardium: Degeneration/necrosis, Slight” value came to 1. In series [2] (LY2109761 300 mg/kg/day), the “Myocardium: Hemorrhage, Slight” value was 0 and the “Myocardium: Infiltrate, mixed cell, Slight” value was found to be 1. The “Animals with abnormally-shaped sternum” value in series [2] (each of 200 mg/kg and 300 mg/kg groups, n=5) is given as “four”. Further, the “Clear fluid in the thoracic cavity” value in series [2] (one animal at 300 mg/kg found dead on Day 3, with enlarged thymus (edema)) amounted to 2.5 mL. Also, in series [2] (≥200 mg/kg), the Heart weight entry is “Increased heart weights” and the “Microscopic heart valve findings” value is on record as “exhibited heart valve findings (i.e., valvulopathy)”.

With `Cc1cccc(-c2nn3c(c2-c2ccnc4ccc(C(N)=O)cc24)CCC3)n1` [LY2157299], the “Organ toxicities on chronic (≥3 months) administration” value in series [3] is recorded as “caused multiple organ toxicities”.

Consider “Fresolimumab: a pan TGFβ antibody capable of neutralizing all human isoforms of TGFβ”, for which the “Toxicity after multiple administrations” value in series [4] is “induce an epithelial hyperplasia of the gingiva, bladder, and of the nasal turbinate epithelium”. Moreover, in series [5], the “Most notable adverse reaction in clinical trials” value was “induction of cutaneous keratoacanthomas and/or squamous cell carcinomas”.
